The structures appear in SMILES notation. Calls of active or inactive are those of the source. The rule behind the calls is not given here.

Assay [1] deals with Cucumis sativus. Description: Inhibition of radicular growth in Cucumis sativus at 1000 ppm after 3 days. Type of assay: functional, organism-based.
Assay [2] relates to Sorghum bicolor. The assay can be described thus: Inhibition of radicular growth in Sorghum bicolor at 1000 ppm after 3 days. The assay is classed as functional. Conditions: 72 h.
In assay [3] the test system is Cucumis sativus. The assay can be described thus: Stimulation of radicular growth in Cucumis sativus at 100 ppm after 3 days. Type of assay: functional, organism-based.
The test system of assay [4] is Sorghum bicolor. The assay can be described thus: Inhibition of radicular growth in Sorghum bicolor at 100 ppm after 3 days. Type of assay: functional. Conditions: 72 h.
The subject of assay [5] is Cucumis sativus. The assay can be described thus: Stimulation of radicular growth in Cucumis sativus at 1000 ppm after 3 days. The assay is classed as functional, organism-based.

With `C[C@]1(CO)CCC[C@]2(C)[C@H]3Cc4occc4[C@@](C)(O)[C@@H]3[C@@H](O)[C@H](O)[C@@H]12`, the result in assay [1] and in assay [3] was Active. For the same compound, in assay [2], 1000 ppm produced 13% inhibition.

Turning to `CC1(C)CCC[C@]2(C)[C@H]3Cc4occc4[C@@H](C(=O)O)[C@@H]3[C@@H](O)[C@H](O)[C@@H]12`, the result in assay [1] and in assay [3] was Active. In assay [2], the inhibition (as a rule, the drop in the measured response relative to a control, in per cent) at 1000 ppm was determined as 65%. The inhibition at 100 ppm in assay [4] came out at 39%.

In the case of `CC1(C)CCC[C@]2(C)[C@H]3Cc4occc4[C@H]4C(=O)O[C@@H]([C@H](O)[C@@H]12)[C@@H]43`, in assay [2], the inhibition at 1000 ppm came to 13%. Also, the result in assay [5] was inactive. In addition, the outcome in assay [3] was Active.

As to `CC1(C)CCC[C@]2(C)[C@H]3Cc4occc4[C@@](C)(O)[C@@H]3[C@@H](O)[C@H](O)[C@@H]12`, testing at 1000 ppm in assay [2] gave an inhibition of 13%. Further, the result in assay [5] was inactive. Besides, the outcome in assay [3] was Active.

The values are drawn from ChEMBL document CHEMBL1158218, “Structure and Plant Growth Regulatory Activity of New Diterpenes from Pterodon polygalaeflorus” (1996).
